pIC50: −log10 of the molar value. Where a SMILES comes first, the peptide text is derived from it. [ ]: non-standard residue; d: D form. The star is where a group is joined. Nle = CCCC[C@H](N)C(=O)O; Cbz = O=C(OCc1ccccc1)*
Tests used:
proteasome [1] = biological target: T1, proteasome (Homo sapiens, UniProt P28074); test: Jurkat IκB-Bla reporter assay, inhibition of the TNFα-stimulated decrease in reporter level by proteasome inhibitors; assay type: cell-based
T1 construct: other: Jurkat IκB-Bla cells, TNFα stimulation; effect on the TNFα-stimulated decrease in reporter level; other: 10 μM for 60 minutes prior to TNFα 10 ng/ml; CCF2/AM
T1 sequence (P28074 60-263): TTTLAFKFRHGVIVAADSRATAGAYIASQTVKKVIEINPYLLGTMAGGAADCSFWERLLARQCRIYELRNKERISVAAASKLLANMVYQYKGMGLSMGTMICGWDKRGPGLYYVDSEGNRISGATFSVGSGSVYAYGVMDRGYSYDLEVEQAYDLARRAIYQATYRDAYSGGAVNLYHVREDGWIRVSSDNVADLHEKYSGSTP
T1 sequence (P28072 35-239 partner): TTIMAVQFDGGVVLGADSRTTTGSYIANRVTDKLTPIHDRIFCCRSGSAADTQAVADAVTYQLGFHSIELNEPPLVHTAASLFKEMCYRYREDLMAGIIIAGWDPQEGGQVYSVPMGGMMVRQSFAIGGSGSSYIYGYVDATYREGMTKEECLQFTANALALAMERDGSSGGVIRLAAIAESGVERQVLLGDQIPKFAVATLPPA
T1 sequence (Q99436 44-277 partner): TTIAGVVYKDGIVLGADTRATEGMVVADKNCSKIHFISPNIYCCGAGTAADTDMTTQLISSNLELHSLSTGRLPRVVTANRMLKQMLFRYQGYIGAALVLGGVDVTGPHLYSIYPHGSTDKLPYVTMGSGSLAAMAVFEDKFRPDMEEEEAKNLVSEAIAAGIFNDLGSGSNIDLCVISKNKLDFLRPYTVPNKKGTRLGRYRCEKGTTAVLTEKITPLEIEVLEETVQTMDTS
Experimental: (§1) Therefore, the requirement of proteasome activity on β-lactamase activity was tested. […] Reporter activity was determined using CCF2/AM.

proteasome [2] = test: as above; assay type: cell-based, Human; conditions: 10 μM, no TNFα; FIG. 10
Experimental: as §1

Jurkat IκB-Bla cells = test: Responsiveness of Jurkat IκB-Bla cells to proinflammatory treatments that activate the NFκB pathway; assay type: cell-based
Experimental: The responsiveness of the Jurkat IκB-Bla cells to proinflammatory treatments known to activate the NFκB pathway was tested. Cells were treated with 10 ng/ml TNFα, 10 nM PMA, 10 μg/ml PHA or 100 ng/ml IL-1β for the times indicated in FIG. 8A and then loaded with CCF2 and read on a fluorescence plate reader. […] The apparent insensitivity to IL-1β may be explained by low expression of IL-1 receptor in Jurkat cells.
To establish that the TNFα-stimulated decrease in β-lactamase activity was due to phosphorylation of IκB on serines-32 and -36, the responsiveness of Jurkat cells expressing the S32A, S36A IκB mutant as a fusion with β-lactamase was tested. The IκB(S32A, S36A)-Bla cell line was created exactly as described above for wild-type IκB-Bla cells. The cells were treated with 10 ng/ml TNFα for 30 minutes and then loaded with CCF2/AM. As shown in the comparison of wild-type construct to mutant in FIGS. 9A and 9B, respectively, the mutation of serines-32 and -36 abolished the decrease in β-lactamase activity in response to TNFα treatment.

`CCCC[C@@H](C=O)NC(=O)[C@H](CC(C)C)NC(=O)[C@H](CC(C)C)NC(C)=O` [ALLN] (Ac-Leu-Leu-[Nle]-aldehyde) was tested, and the pIC50 (proteasome [1]; Jurkat IκB-Bla cells, TNFα stimulation, data not shown, read-out: IC50 for inhibition of the TNFα-stimulated decrease in reporter levels) was 5.30.
With `CC(C)C[C@@H](C=O)NC(=O)[C@H](CC(C)C)NC(=O)[C@H](CC(C)C)NC(=O)OCc1ccccc1` [MG132] (Cbz-Leu-Leu-Leu-aldehyde) the “effect of inhibitor alone on reporter levels” value (proteasome [2]) was “little to no effect” and the “effect on the TNFα-stimulated decrease in reporter level” value (proteasome [1]; 10 μM for 60 minutes prior to TNFα 10 ng/ml, CCF2/AM, FIG. 10) was “efficiently inhibited”.
For `C[C@@H]1C[C@@H]([C@H](O)CC2CC(=O)NC(=O)C2)C(=O)[C@@H](C)C1` [cycloheximide], the “effect of blocking protein synthesis on the TNFα-stimulated decrease in β-lactamase activity” value (Jurkat IκB-Bla cells; 100 μg/ml added at the time of TNFα addition (10 ng/ml, 30 minutes), FIG. 9) was “did not have a strong synergistic effect”.
With “IL-1β: proinflammatory cytokine; low IL-1 receptor expression in Jurkat cells suggested” the “response of IκB-Bla reporter level (β-lactamase activity) to treatment” value (Jurkat IκB-Bla cells; 10 nM PMA, 10 μg/ml PHA or 100 ng/ml IL-1β, extended treatment for PMA and PHA, FIG. 8A) was “insensitivity”.
With TNFα the “decrease in β-lactamase activity” value (Jurkat IκB-Bla cells; 10 ng/ml, within 30 minutes, CCF2, FIG. 8A) was 2 fold.
